Assays:
human CTPS1 [1] = molecular target: T1, human CTPS1 (Homo sapiens, UniProt P17812); assay: RapidFire/MS-based enzyme selectivity assay, human CTPS1; assay type: biochemical; settings: RapidFire/MS IC50s, human CTPS1 versus CTPS2
T1 construct: purchased Proteros biostructures GmbH
T1 sequence (P17812 1-591): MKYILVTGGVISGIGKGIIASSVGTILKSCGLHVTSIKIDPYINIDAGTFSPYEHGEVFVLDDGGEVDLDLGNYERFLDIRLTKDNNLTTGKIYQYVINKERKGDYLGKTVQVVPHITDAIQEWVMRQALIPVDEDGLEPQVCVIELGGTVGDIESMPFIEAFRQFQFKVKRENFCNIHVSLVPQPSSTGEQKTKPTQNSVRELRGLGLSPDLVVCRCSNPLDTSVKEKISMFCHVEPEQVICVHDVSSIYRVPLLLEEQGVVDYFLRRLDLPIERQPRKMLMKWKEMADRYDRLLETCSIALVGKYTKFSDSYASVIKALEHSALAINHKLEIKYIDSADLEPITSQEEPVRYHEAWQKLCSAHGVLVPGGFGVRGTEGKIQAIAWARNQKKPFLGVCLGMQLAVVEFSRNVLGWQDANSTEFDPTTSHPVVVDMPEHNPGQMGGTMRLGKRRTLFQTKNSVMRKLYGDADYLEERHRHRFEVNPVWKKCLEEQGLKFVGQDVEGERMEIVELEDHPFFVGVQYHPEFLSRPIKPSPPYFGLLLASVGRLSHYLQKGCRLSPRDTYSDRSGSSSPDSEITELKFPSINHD
Protocol: Biological Example 2—RapidFire/MS-Based Enzyme Selectivity Assays
Human CTPS1 Versus CTPS2 Selectivity Assessment by RapidFire/MS Analysis.
The enzyme inhibitory activities against each target isoform of interest were determined for the compounds of the invention using an optimised RapidFire high-throughput mass spectrometry (RF/MS) assay format. RF/MS assays for both human CTPS1 and CTPS2 were performed in assay buffer consisting of 50 mM HEPES (Merck), 20 mM MgCl2, 5 mM KCl, 1 mM DTT, 0.01% Tween-20, pH to 8.0 accordingly. All reagents were from Sigma-Aldrich unless specified otherwise. Human full-length active C-terminal FLAG-His-tag CTPS1 (UniProtKB-P17812, CTPS[1-591]-[…]) was obtained from Proteros biostructures GmbH. Human full length active C-terminal FLAG-His-Avi tagged CTPS2 (UniProtKB-Q9NRF8, CTPS2 [1-586]-[…]) was obtained from Harker Bio.
Human CTPS (1 or 2) protein was prepared in 1× assay buffer to the final working protein concentration required for the reaction. A 2 uL volume per well of 2×CTPS (1 or 2) protein was mixed with 40 nL of compound using acoustic (ECHO) delivery and incubated for 10 minutes at 25° C. Each isoform enzymatic reaction was subsequently initiated by addition of 2 uL per well of a 2× substrate mix in assay buffer. For hCTPS1: ATP (0.3 mM), UTP (0.2 mM), GTP (0.07 mM) and L-glutamine (0.1 mM). For hCTPS2: ATP (0.1 mM), UTP (0.04 mM), GTP (0.03 mM) and L-glutamine (0.1 mM). Each mixture was incubated for an appropriate amount of time per isoform within the determined linear phase of the reaction at 25° C. A 60 uL volume of stop solution (1% formic acid with 0.5 uM ^13C9-^15N3-CTP in H2O) was added and the plate immediately heat-sealed and centrifuged for 10 minutes at 4,000 rpm. Following centrifugation, plates were loaded onto the Agilent RapidFire microfluidic solid phase extraction system coupled to an API4000 triple quadrupole mass spectrometer (RF/MS) for analysis.
In all cases, the enzyme converts UTP to CTP. […] Readout for data analysis was calculated as the ratio between the peak area of the product CTP and the internal standard ^13C9-^15N3-CTP. […]
(R=ratio/readout, P=product signal area, IS=internal standard signal area) […]
(I=Inhibition, Rneg=median of negative control readout values, Rpos=median of positive control readout values, Rsample=sample readout value)
Percentage inhibition was then plotted against compound concentration, and the 50% inhibitory concentration ([…]) was determined from the resultant concentration-response curve.
Fold selectivity between CTPS1 and CTPS2 was subsequently calculated according to the following equation: […]

human CTPS1 [2] = molecular target: T1, human CTPS1; assay: Human CTPS1 enzyme inhibition, ADP-Glo Max assay; assay type: biochemical; settings: human full length CTPS1, read-out: CTPS1 (Human CTPS1 Enzyme Inhibition data grouped by potency range, IC50)
How it was run: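 Full-length C-terminal FLAG-His-tagged protein in 50 mM Tris pH 8.0, 10 mM MgCl2, 0.01% Tween-20 and 2 mM L-cysteine, preincubated with compound for 10 min at 25 °C. The substrate mix held ATP 0.31 mM, GTP 0.034 mM, UTP 0.48 mM and L-glutamine 0.186 mM, and the reaction ran within its linear phase. ADP was read by ADP-Glo Max luminescence; IC50 from the % inhibition curve.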

SMILES	Selectivity (fold selectivity between CTPS1 and CTPS2) (human CTPS1 [1])	IC50 (human CTPS1 [2]) [µM]
CCC(NC(=O)c1ccc(-c2cncc(C(F)(F)F)c2)cc1)c1csc(NS(=O)(=O)C2CC2)n1 (racemic) [Example R2, N-(1-(2-(cyclopropanesulfonamido)thiazol-4-yl)propyl)-4-(5-(trifluoromethyl)pyridin-3-yl)benzamide]		0.1 to 1
COCCC(NC(=O)c1ccc(-c2cncc(C(F)(F)F)n2)cc1F)c1csc(NS(=O)(=O)C2CC2)n1 (stereo not drawn) [Example R87, N-(1-(2-(cyclopropanesulfonamido)thiazol-4-yl)-3-methoxypropyl)-2-fluoro-4-(6-(trifluoromethyl)pyrazin-2-yl)benzamide]		0.1 to 1
CCC(CC)(NC(=O)c1ccc(-c2cnccn2)cc1)c1csc(NS(=O)(=O)C2CC2)n1 [Example R22, N-(3-(2-(cyclopropanesulfonamido)thiazol-4-yl)pentan-3-yl)-4-(pyrazin-2-yl)benzamide]		0.1 to 1
CCC(NC(=O)c1ccc(-c2cncc(F)c2)cc1)c1csc(NS(=O)(=O)C2CC2)n1 (single isomer, unassigned) [Example R69, N-(1-(2-(cyclopropanesulfonamido)thiazol-4-yl)propyl)-4-(5-fluoropyridin-3-yl)benzamide]		< 0.1
CCC(CC)(NC(=O)c1ccc(-c2cncc(Cl)n2)cc1)c1csc(NS(=O)(=O)C2CC2)n1 [Example R20, 4-(6-chloropyrazin-2-yl)-N-(3-(2-(cyclopropanesulfonamido)thiazol-4-yl)pentan-3-yl)benzamide]		< 0.1

Other lines, results leading:

Selectivity (fold selectivity between CTPS1 and CTPS2) (human CTPS1 [1])	IC50 (human CTPS1 [2]) [µM]	SMILES
++ (>30-60 fold (++))	< 0.1	CCOc1cncc(-c2ccc(C(=O)NC(C)(C)c3csc(NS(=O)(=O)C4CC4)n3)c(F)c2)n1 [Example R6, N-(2-(2-(cyclopropanesulfonamido)thiazol-4-yl)propan-2-yl)-4-(6-ethoxypyrazin-2-yl)-2-fluorobenzamide]
+++ (>60 fold (+++))		CCOc1cncc(-c2ccc(C(=O)NC(CCOC)c3csc(NS(=O)(=O)C4CC4)n3)c(F)c2)n1 (single isomer, unassigned) [Example R93, N-(1-(2-(cyclopropanesulfonamido)thiazol-4-yl)-3-methoxypropyl)-4-(6-ethoxypyrazin-2-yl)-2-fluorobenzamide]
+++ (>60 fold (+++))	< 0.1	CCOc1cncc(-c2ccc(C(=O)NC(CCOC)c3csc(NS(=O)(=O)C4CC4)n3)c(F)c2)n1 (single isomer, unassigned) [Example R92, N-(1-(2-(cyclopropanesulfonamido)thiazol-4-yl)-3-methoxypropyl)-4-(6-ethoxypyrazin-2-yl)-2-fluorobenzamide]
+++ (>60 fold (+++))	< 0.1	CCOc1cncc(-c2ccc(C(=O)NC(CC)c3csc(NS(=O)(=O)C4CC4)n3)c(F)c2)n1 (single isomer, unassigned) [Example R71, N-(1-(2-(cyclopropanesulfonamido)thiazol-4-yl)propyl)-4-(6-ethoxypyrazin-2-yl)-2-fluorobenzamide]
	0.1 to 1	Cc1cc(-c2cncc(C(F)(F)F)n2)ccc1C(=O)NC(C)(C)c1csc(NS(=O)(=O)C2CC2)n1 [Example R45, N-(2-(2-(cyclopropanesulfonamido)thiazol-4-yl)propan-2-yl)-2-methyl-4-(6-(trifluoromethyl)pyrazin-2-yl)benzamide]
	0.1 to 1	CCOc1cncc(-c2ccc(C(=O)NC(C)(C)c3csc(NS(=O)(=O)C4CC4)n3)c(C)c2)n1 [Example R46, N-(2-(2-(cyclopropanesuIfonamido)thiazol-4-yl)propan-2-yl)-4-(6-ethoxypyrazin-2-yl)-2-methylbenzamide]
	< 0.1	Cc1cncc(-c2ccc(C(=O)NC(C)(C)c3csc(NS(=O)(=O)C4CC4)n3)cc2)c1 [Example R37, N-(2-(2-(cyclopropanesulfonamido)thiazol-4-yl)propan-2-yl)-4-(5-methylpyridin-3-yl)benzamide]
